Results: patent US20080199422A1, “Method for the Treatment of Myelodysplastic Syndromes Using 1-Oxo-2-(2,6-Dioxopiperidin-3-Yl-)-4-Methylisoindoline” (CELGENE CORPORATION, priority 2004, published 2008)
Like-named read-outs stand apart in the source and are kept apart here.

Legend:
[1] = test system: MDS patients; conditions: cited from earlier work
[2] = test system: TNF-α production; conditions: human PBMC, cited from earlier work; for IC50: LPS, read-out: IC50 for inhibiting production of TNF-α following LPS-stimulation of PBMC
[3] = test system: MDS patients; experiment: Expanded clinical study, additional 16 MDS patients; type: in vivo, human
Source text: The clinical study was expanded with additional 16 MDS patients for at least eight weeks. According to the IPSS, 13 of these patients were categorized as low- or intermediate-1-risk patients and three patients were grouped as intermediate-2- or high-risk patients. According to the FAB classification, there were 11 patients with refractory anemia (RA) or RA with ringed sideroblasts (RARS), and five patients with RA with excess blasts (RAEB), RAEB in transformation (RAEB-T). The starting dose of 3-(4-amino-1-oxo-1,3-dihydro-isoindol-2-yl)-piperidine-2,6-dione was 25 mg daily for the first 13 patients and 10 mg daily for the remaining three patients. All patients receiving the starting dose of 25 mg required dose reduction by the completion of eight weeks therapy. Among these 16 patients who completed at least 8 weeks of monitoring, nine patients achieved an erythroid response as assessed by the International MDS Working Group Criteria. The erythroid responses consisted of transfusion independence in seven previously transfusion-dependent patients, a >2 g/dL rise in blood hemoglobin concentration in one patient in with transfusion-independent anemia, and a >50% decrease in RBC transfusion requirement in one transfusion-dependent patient. […] In addition, complete cytogenetic responses developed in five in eight patients with abnormal karyotypes at baseline. These five patients with complete cytogenetic responses all had the Del5q3 1-33 abnormality, which has been discovered to be a good prognostic factor for MDS. Indeed, all five patients who enrolled in this study with 5q-syndrome achieved a complete cytogenetic response and a major erythroid response. The study also indicated an association of this therapy with an increased apoptotic index for myelodysplastic progenitors and recovery of normal hematopoietic progenitor cells.

[4] = test system: TNF-α production; conditions: cited from earlier work
[5] = test system: MDS patients; experiment: Clinical study in MDS patients with transfusion-dependence or symptomatic anemia; type: in vivo, human
Experimental: Clinical studies were performed for the remitting potential of 3-(4-amino-1-oxo-1,3-dihydro-isoindol-2-yl)-piperidine-2,6-dione in MDS patients with red blood cell transfusion-dependence (>4 units/8 weeks) or symptomatic anemia (Hgb<10 g/dl). Patients received continuous treatment with 3-(4-amino-1-oxo-1,3-dihydro-isoindol-2-yl)-piperidine-2,6-dione at a oral dose of 25 mg daily. Responses were assessed according to IWG criteria after 16 weeks of treatments. Among 15 patients receiving the treatments, 11 patients were evaluable for toxicity, nine patients were evaluable for response (>8 wks therapy), and three patients discontinued the therapy prematurely (<2 weeks) due to cholecystitis, autoimmune hemolytic anemia, or patient refusal. Median age of the patients was 78 years ranging from 51 to 82 years. FAB types of the MDS patients include RA [4 patients], RARS [4 patients], RABB [6 patients], and RAEB-T [1 patient] with corresponding IPSS categories of Low/Int-1 in 11 patients and Int-2/High in four patients. Myelosuppression, which was characterized by higher than grade 3 common toxicity criteria or 50% decrease in leukocyte and platelet counts [9 patients], and grade 3 fatigue [1 patient], necessitated dose reduction to 10 mg in the initial ten patients. All subsequent patients initiated oral administrations with 10 mg daily. Grade 1, 2 drug-related adverse effects were limited to the 25 mg dose and included pruritus or itchy scalp [6 patients] and myalgia [1 patient]. Six (66%) of nine evaluable patients experienced hematologic benefit (dual lineage, 1 patient), including 6/7 (86%) patients with IPSS Low/Int-1. Hematologic responses included RBC transfusion-independence [4 patients], decrease in RBC transfusions of more than 50% [1 patient], increase in Hgb of more than 1.5 g [1 patient], and one minor platelet response (increase of more than 30,000/μL ). Among five patients evaluable for cytogenetic response, three patients achieved either a complete or partial (decrease in abnormal metaphases of more than 50%) remission. […] Correlation with changes in apoptotic index, angiogenic features (cellular/plasma VEGF, micro vessel density), cytokine generation, and proliferative fraction (Ki67) are in progress. […] Clinical benefit appears greatest in patients with low/intermediate-1 disease or the 5q-syndrome, associated with resolution of cytology dysplasia.

[6] = test system: MDS bone marrow progenitor formation; experiment: MDS vs normal bone marrow progenitor formation in pre-clinical models; type: cell-based
Source text: (§1) The pharmacological effects of 3-(4amino-1-oxo-1,3-dihydro-isoindol-2-yl)-piperidine-2,6-dione derive from its action as an inhibitor of cellular response to receptor-initiated trophic signals (e.g., IGF-1, VEGF, cyclooxygenase-2), and other activities. As a result, 3-(4-amino-1-oxo-1,3-dihydro-isoindol-2-yl)-piperidine-2,6-dione suppresses the generation of inflammatory cytokines, down-regulates adhesion molecules and apoptosis inhibitory proteins (e.g., cFLIP, cIAP), promotes sensitivity to death-receptor initiated programmed cell death, and suppresses angiogenic response.

[7] = test system: AML cells; experiment: Mitogenic response to VEGF in AML cells; type: cell-based; conditions: by extinguishing ligand-induced Akt-phosphorylation
Source text: as §1

[8] = 25 mg daily, initial ten patients, necessitated dose reduction to 10 mg

For “recombinant human EPO: recombinant human erythropoietin (EPO), hematopoietic growth factor”, the “patients with sustained improvement in hemoglobin or decrease in transfusion requirement” value [1] is listed as “less than 25%”.

For `Nc1cccc2c1CN(C1CCC(=O)NC1=O)C2=O` (stereo not drawn) [3-(4-amino-1-oxo-1,3-dihydro-isoindol-2-yl)-piperidine-2,6-dione], the IC50 [2] is given as about 100 nM, the “IC50 for inhibiting production of TNF-α following LPS-stimulation of PBMC” value [2] is given as about 0.0259 µg/mL and the “erythroid response (International MDS Working Group Criteria)” value ([3]; among 16 patients, at least 8 weeks, start 25 mg or 10 mg daily) is given as “nine”. The complete cytogenetic responses ([3]; in eight patients with abnormal karyotypes at baseline) was “five”, the major erythroid response ([3]; of 16 patients) was “eight” and the minor erythroid response ([3]; of 16 patients) was “one”. For the same molecule, the minor platelet response ([3]; of 16 patients) was “One”, the “complete cytogenetic response and major erythroid response in 5q-syndrome” value ([3]; patients enrolled with 5q-syndrome) was “all five” and the transfusion independence ([3]; previously transfusion-dependent patients) was “seven”. For the same molecule, the “patients requiring dose reduction by completion of eight weeks therapy” value ([3]; starting dose of 25 mg (first 13 patients)) was “All patients”, the “>50% decrease in RBC transfusion requirement” value ([3]; transfusion-dependent patient) was “one” and the “>2 g/dL rise in blood hemoglobin concentration” value ([3]; transfusion-independent anemia) was “one”. For the same molecule, the “IC50 for inhibiting production of TNF-α following LPS-stimulation of human whole blood” value [4] was about 0.1036 µg/mL, the IC50 ([4]; human whole blood, LPS, read-out: IC50 for inhibiting production of TNF-α following LPS-stimulation of human whole blood) was about 480 nM and the tolerability ([5]; 10 mg continuous oral daily dose) was “well-tolerated with minimal myelosuppression”. The “grade 3 fatigue” value [5, 8] was 1 patient, the “myelosuppression (higher than grade 3 common toxicity criteria or 50% decrease in leukocyte and platelet counts)” value [5, 8] was 9 patients and the “Grade 1, 2 drug-related myalgia” value ([5]; 25 mg dose) was 1 patient. The “Grade 1, 2 drug-related pruritus or itchy scalp” value ([5]; 25 mg dose) was 6 patients, the “patients with hematologic benefit, IPSS Low/Int-1” value ([5]; 6/7 patients with IPSS Low/Int-1) was 86% and the “complete or partial cytogenetic remission (decrease in abnormal metaphases of more than 50%)” value ([5]; among five patients evaluable for cytogenetic response) was “three”. For the same molecule, the RBC transfusion-independence ([5]; of nine evaluable patients) was 4 patients, the “decrease in RBC transfusions of more than 50%” value ([5]; of nine evaluable patients) was 1 patient and the “increase in Hgb of more than 1.5 g” value ([5]; of nine evaluable patients) was 1 patient. For the same molecule, the “minor platelet response (increase of more than 30,000/μL)” value ([5]; of nine evaluable patients) was “one”, the “erythropoietic and cytogenetic remitting activity” value ([5]; patients with low/intermediate-1 risk MDS) was “remarkable erythropoietic and cytogenetic remitting activity” and the “normalization of blast percentage” value ([5]; responders) was 1 patient. The “patients with hematologic benefit” value ([5]; six of nine evaluable patients, oral 25 mg daily, reduced to 10 mg, IWG criteria) was 66%, the “MDS vs normal bone marrow progenitor formation” value [6] was “selectively suppresses” and the “mitogenic response to VEGF” value [7] was “abrogates mitogenic response to VEGF”.

In the case of `O=C1CCC(N2C(=O)c3ccccc3C2=O)C(=O)N1` (racemic) [Thalidomide, 2-(2,6-dioxo-3-piperidinyl)-1H-isoindole-1,3(2H)-dione, reference compound], the IC50 [2] is given as about 194000 nM and the “IC50 for inhibiting production of TNF-α following LPS-stimulation of PBMC” value [2] is given as about 50.2 µg/mL.
